Laboratory results reported in US6369261B1, “Compounds having activity as inhibitors of cytochrome P450RAI” (Allergan Sales, Inc., priority 2000, dated 2002).

What was measured:
[1] = system: SKH1-hrBR or hairless mouse; experiment: topical skin irritation test in hairless mice; format: in vivo; settings: topical in acetone, once daily days 1 through 5, mean ±SD, range 0-21
Source text: Mice were housed individually throughout the dosing period.
Doses are disclosed as nmol/25 g.
The grading scale used is as follows:
Values can range from 0-9.
Values can range from 0-8.

RARβ = molecular target: T1, RARβ (Homo sapiens, UniProt P10826); experiment: ligand binding assay; settings: last line of the stacked cell, read-out: RAR Kd β
T1 sequence (P10826 1-455): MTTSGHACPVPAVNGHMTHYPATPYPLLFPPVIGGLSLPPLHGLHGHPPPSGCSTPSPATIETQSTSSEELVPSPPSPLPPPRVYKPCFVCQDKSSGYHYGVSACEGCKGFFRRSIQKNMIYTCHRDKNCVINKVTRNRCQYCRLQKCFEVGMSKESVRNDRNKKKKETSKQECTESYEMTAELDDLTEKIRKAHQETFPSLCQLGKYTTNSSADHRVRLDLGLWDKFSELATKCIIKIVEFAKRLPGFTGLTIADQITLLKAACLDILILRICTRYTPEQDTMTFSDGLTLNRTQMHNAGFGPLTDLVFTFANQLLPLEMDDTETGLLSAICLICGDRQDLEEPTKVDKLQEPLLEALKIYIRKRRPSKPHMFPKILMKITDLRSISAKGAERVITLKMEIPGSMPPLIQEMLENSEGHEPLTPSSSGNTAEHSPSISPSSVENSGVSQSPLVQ
Source text: (§1) Assays described below measure the ability of a compound to bind to, and/or activate various retinoid receptor subtypes. When in these assays a compound binds to a given receptor subtype and activates the transcription of a reporter gene through that subtype, then the compound is considered an agonist of that receptor subtype. […] In the below described assays the ability of the compounds to bind to RARα, RARβ, RARγ, RXRα, RXRβ and RXRγ receptors, and the ability or inability of the compounds to activate transcription of a reporter gene through these receptor subtypes can be tested.
(§2) The results obtained in this assay are expressed in EC50 numbers, as they are also in the chimeric receptor transactivation assay. The results of ligand binding assay are expressed in Kd numbers.

RARγ = molecular target: T2, RARγ (Homo sapiens, UniProt P13631); experiment: ligand binding assay; settings: last line of the stacked cell, read-out: RAR Kd γ
T2 sequence (P13631 1-454): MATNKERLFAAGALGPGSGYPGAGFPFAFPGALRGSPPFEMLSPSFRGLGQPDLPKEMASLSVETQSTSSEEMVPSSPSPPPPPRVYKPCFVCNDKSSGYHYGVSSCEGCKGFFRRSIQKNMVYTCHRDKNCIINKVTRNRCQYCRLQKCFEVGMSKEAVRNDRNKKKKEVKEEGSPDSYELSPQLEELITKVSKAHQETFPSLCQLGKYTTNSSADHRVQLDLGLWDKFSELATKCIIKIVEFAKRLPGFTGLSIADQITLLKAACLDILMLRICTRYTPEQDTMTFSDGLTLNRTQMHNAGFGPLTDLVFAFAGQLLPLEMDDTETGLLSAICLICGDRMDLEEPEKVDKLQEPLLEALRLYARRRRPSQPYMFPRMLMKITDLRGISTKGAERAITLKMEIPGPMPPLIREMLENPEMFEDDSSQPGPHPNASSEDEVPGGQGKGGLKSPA
Source text: as §1, §2

Structure (SMILES)	Cutaneous Toxicity Score (Blackjack Score) ([1]; 100 nmole (nmol/25 g))	Cutaneous Toxicity Score (Blackjack Score) ([1]; 1000 nmole (nmol/25 g))	Cutaneous Toxicity Score (Blackjack Score) ([1]; 300 nmole (nmol/25 g))	Kd (RARβ) [µM]	Kd (RARγ) [µM]
CC1(C)CCC(=O)c2ccc(C#Cc3ccc(CC(=O)O)cc3)cc21 [Compound 5, 4-[(8,8-Dimethyl-5-oxo-5,6,7,8-tetrahydro-naphthalene-2-yl-ethynyl)-phenyl]-acetic acid]	0	6 ± 3	–	–	–
CN(C1CC1)C1CCC(C)(C)c2cc(C#Cc3ccc(CC(=O)O)cc3)ccc21 (stereo not shown) [Compound 8, 4-[(5-(Cyclopropyl-methyl-amino)-8,8-dimethyl-5,6,7,8-tetrahydro-naphthalene-2-yl-ethynyl)-phenyl]-acetic acid]	5 ± 2	12 ± 1	8 ± 3	–	–
CC1(C)CCC(=O)c2ccc(C#Cc3ccc(CC(=O)O)c(F)c3)cc21 [Compound 15, [2-Fluoro-4-(8,8-dimethyl-5-oxo-5,6,7,8-tetrahydro-naphthalene-2-yl-ethynyl)phenyl]-acetic acid]	1 ± 1	5 ± 2	–	–	–
CN(C1CC1)C1CCC(C)(C)c2cc(C#Cc3ccc(CC(=O)O)c(F)c3)ccc21 (stereo not shown) [Compound 18, [4-(5-(Cyclopropyl-methyl-amino)-8,8-dimethyl-5,6,7,8-tetrahydro-naphthalene-2-yl-ethynyl)-2-fluoro-phenyl]-acetic acid]	0 ± 0	10 ± 2	5 ± 2	–	–
CC1(C)CN(C2CC2)Cc2ccc(C#Cc3ccc(CC(=O)O)c(F)c3)cc21 [Compound 22, [4-(2-Cyclopropyl-4,4-dimethyl-1,2,3,4-tetrahydro-isoquinolin-6-yl-ethynyl)-2-fluoro-phenyl]-acetic acid]	0 ± 0	1 ± 1	0 ± 0	–	–
CC1(C)CC(C)(C)c2cc(C#Cc3ccc(CC(=O)O)cc3)cc(C3CC3)c2O1 [Compound 36, [4-(8-Cyclopropyl-2,2,4,4-tetramethyl-chroman-6-yl-ethynyl)phenyl]acetic acid]	1 ± 1	11 ± 0	–	–	–
CC1(C)CC(C)(C)c2cc(C#Cc3ccc(CC(=O)O)c(F)c3)cc(C3CC3)c2O1 [Compound 38, [4-(8-Cyclopropyl-2,2,4,4-tetramethyl-chroman-6-yl-ethynyl)-2-fluorophenyl] acetic acid]	1 ± 1	10 ± 1	–	–	–
CC1(C)CC(C)(C)c2cc(C(=O)Oc3ccc(CC(=O)O)cc3)ccc2O1 [Compound 46, 2,2,4,4-Tetramethyl-chroman-6-carboxylic acid 4-(carboxymethyl)phenyl ester]	–	–	–	> 10	> 10
CC1(C)CC2(CC2)Oc2c(C3CC3)cc(C#Cc3ccc(CC(=O)O)cc3)cc21 [Compound 48, Benzeneacetic acid, 4-[(8-cyclopropyl-3,4-dihydro-4,4-dimethylspiro[2H-1-benzopyran-2,1′-cyclopropane]-6-yl)ethynyl]-]	1 ± 1	7 ± 2	3 ± 1	–	–
CC1(C)CC2(CC2)Oc2c(C3CC3)cc(C#Cc3ccc(CC(=O)O)c(F)c3)cc21 [Compound 50]	1 ± 0	8 ± 2	3 ± 2	–	–
CC1(C)CC2(CC2)Oc2c(C3CC3)cc(C(=O)Oc3ccc(CC(=O)O)cc3)cc21 [Compound 58, Spiro[2H-1-benzopyran-2,1′-cyclopropane]-6-carboxylic acid, 8-cyclopropyl-3,4-dihydro-4,4-dimethyl-, 4-(carboxymethyl)phenyl ester]	0 ± 0	0 ± 0	0 ± 0	–	–
CCCN(CCC)C1(c2ccc(C#Cc3ccc(C(=O)O)cc3)cc2)CC1 [Compound 110, 4-[4-(1-Dipropylamino-cyclopropyl)-phenylethynyl]-benzoic acid]	–	–	–	–	> 10
O=C(O)c1ccc(C#Cc2ccc(C3(N(Cc4ccccc4)Cc4ccccc4)CC3)cc2)cc1 [Compound 114, 4-[4-(1-Dibenzylamino-cyclopropyl)-phenylethynyl]-benzoic acid]	–	–	–	> 10	–
Cc1cc(C#Cc2ccc(CC(=O)O)cc2)ccc1Cn1ccnc1 [Compound 121, [4-(4-Imidazol-1-yl-methyl-3-methyl-phenylethynyl)-phenyl]-acetic acid]	–	–	–	> 100	–
CCN(Cc1ccc(C#Cc2ccc(CC(=O)O)cc2)cc1C)C1CC1 [Compound 131, (4-{4-[(Cyclopropyl-ethyl-amino)-methyl]-3-methyl-phenylethynyl}-phenyl)-acetic acid]	1 ± 1	1 ± 1	0 ± 1	–	–
CC1(C)CCC(n2ccnc2)c2ccc(C#Cc3ccc(CC(=O)O)cc3)cc21 (stereo not shown) [Compound 137, [4-(5-Imidazol-1-yl-8,8-dimethyl-5,6,7,8-tetrahydro-naphthalen-2-yl-ethynyl)-phenyl]-acetic acid]	1 ± 1	5 ± 2	1 ± 1	–	–
